Results reported in ChEMBL document CHEMBL1909046, “DrugMatrix in vitro pharmacology data”.

How the values were obtained:
[1] = target: Beta-3 adrenergic receptor (Homo sapiens, UniProt P13945); experiment: DRUGMATRIX: Adrenergic beta3 radioligand binding (ligand: [125I] Cyanopindolol); type: cell membranes, HEK293, Membrane; conditions: hek293; Not Active = under 50% inhibition at 10 µM
[2] = target: 5-hydroxytryptamine receptor 6 (Homo sapiens, UniProt P50406); type: cell membranes, HeLa, Membrane; conditions: hela; further: in other assays of this panel Not Active means under 50% inhibition at 10 µM
5-hydroxytryptamine receptor 6, sequence (P50406 whole entry): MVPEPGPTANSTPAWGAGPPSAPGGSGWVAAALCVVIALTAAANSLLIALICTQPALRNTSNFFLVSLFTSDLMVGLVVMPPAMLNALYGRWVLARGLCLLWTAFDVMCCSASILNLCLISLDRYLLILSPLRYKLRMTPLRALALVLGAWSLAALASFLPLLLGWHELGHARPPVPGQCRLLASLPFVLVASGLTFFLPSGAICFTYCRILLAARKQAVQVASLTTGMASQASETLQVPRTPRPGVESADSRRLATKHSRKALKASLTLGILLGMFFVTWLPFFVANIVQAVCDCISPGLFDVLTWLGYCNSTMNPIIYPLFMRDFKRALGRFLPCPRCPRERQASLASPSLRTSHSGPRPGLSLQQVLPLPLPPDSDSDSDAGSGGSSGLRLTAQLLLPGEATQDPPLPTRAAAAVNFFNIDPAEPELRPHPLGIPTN

[3] = DRUGMATRIX: Glutamate, Kainate radioligand binding (ligand: [3H] Kainic acid); type: cell membranes, Rattus norvegicus, Wistar, Brain, Membrane; conditions: Not Active = under 50% inhibition at 10 µM
[4] = target: 5-hydroxytryptamine receptor 2B (Homo sapiens, UniProt P41595); type: cell membranes, CHO-K1, Membrane; further: in other assays of this panel Not Active means under 50% inhibition at 10 µM
5-hydroxytryptamine receptor 2B, sequence (P41595 whole entry): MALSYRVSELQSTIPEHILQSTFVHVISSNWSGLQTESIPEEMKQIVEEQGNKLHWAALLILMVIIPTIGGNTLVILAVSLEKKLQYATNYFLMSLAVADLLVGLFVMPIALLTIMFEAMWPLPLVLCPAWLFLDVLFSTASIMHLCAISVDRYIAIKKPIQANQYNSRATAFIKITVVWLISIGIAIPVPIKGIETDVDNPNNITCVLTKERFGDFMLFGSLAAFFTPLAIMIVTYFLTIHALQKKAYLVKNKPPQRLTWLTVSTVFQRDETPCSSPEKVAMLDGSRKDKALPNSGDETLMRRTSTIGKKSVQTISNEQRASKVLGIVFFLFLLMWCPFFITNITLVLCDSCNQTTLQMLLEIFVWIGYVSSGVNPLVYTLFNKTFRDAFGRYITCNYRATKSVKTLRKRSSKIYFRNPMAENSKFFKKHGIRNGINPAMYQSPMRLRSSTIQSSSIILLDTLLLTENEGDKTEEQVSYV

D(4) dopamine receptor = target: T1, D(4) dopamine receptor (Homo sapiens, UniProt P21917); experiment: DRUGMATRIX: Dopamine D4.2 radioligand binding (ligand: [3H] Spiperone); type: cell membranes, CHO-K1, Membrane; conditions: cho-k1; Not Active = under 50% inhibition at 10 µM
T1 sequence (P21917 whole entry): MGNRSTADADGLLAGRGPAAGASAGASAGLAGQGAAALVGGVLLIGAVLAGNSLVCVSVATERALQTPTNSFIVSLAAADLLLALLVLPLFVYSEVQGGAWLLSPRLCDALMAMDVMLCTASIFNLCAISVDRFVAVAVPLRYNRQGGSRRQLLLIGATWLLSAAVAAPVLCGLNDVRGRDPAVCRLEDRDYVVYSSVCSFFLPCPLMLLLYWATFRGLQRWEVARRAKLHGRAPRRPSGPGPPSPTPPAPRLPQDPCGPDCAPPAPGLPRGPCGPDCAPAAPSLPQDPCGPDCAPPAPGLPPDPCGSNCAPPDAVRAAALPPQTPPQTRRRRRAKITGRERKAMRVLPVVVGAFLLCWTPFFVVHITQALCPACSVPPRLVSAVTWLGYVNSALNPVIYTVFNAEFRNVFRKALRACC

[5] = DRUGMATRIX: GABAA, Chloride Channel, TBOB radioligand binding (ligand: [3H] TBOB); type: cell membranes, Rattus norvegicus, Wistar, Cerebral cortex, Membrane; conditions: Not Active = under 50% inhibition at 10 µM
[6] = DRUGMATRIX: Imidazoline I2, Central radioligand binding (ligand: [3H] Idazoxan); type: cell membranes, Rattus norvegicus, Wistar, Cerebral cortex, Membrane; conditions: Not Active = under 50% inhibition at 10 µM
Thromboxane-A synthase = target: T2, Thromboxane-A synthase (Homo sapiens, UniProt P24557); experiment: biochemical; type: tissue-based, Platelet; conditions: platelet;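 further: enzyme inhibition assay with PGH2 supplied as substrate; in other assays of this panel Not Active means under 50% inhibition at 10 µM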
T2 sequence (P24557 whole entry): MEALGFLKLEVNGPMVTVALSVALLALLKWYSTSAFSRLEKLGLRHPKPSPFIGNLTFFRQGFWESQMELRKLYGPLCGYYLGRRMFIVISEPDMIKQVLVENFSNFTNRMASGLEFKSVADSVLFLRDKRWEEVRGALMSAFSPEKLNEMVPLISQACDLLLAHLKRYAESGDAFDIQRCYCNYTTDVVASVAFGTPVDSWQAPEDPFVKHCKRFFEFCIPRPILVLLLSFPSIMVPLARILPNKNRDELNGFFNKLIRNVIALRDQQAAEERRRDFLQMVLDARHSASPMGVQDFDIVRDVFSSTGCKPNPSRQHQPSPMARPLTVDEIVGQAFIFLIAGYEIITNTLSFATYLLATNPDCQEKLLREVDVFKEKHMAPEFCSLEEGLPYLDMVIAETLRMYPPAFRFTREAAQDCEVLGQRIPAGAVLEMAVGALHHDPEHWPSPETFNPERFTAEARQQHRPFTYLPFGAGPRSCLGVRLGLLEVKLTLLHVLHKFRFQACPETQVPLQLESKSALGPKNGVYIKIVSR

[7] = DRUGMATRIX: Glutamate, AMPA radioligand binding (ligand: [3H] AMPA); type: cell membranes, Rattus norvegicus, Wistar, Cerebral cortex, Membrane; conditions: Not Active = under 50% inhibition at 10 µM
Glycine receptor = Glycine receptor (Rattus norvegicus, UniProt P22771+P24524+P07727+P20781); type: cell membranes, Wistar, Spinal cord, Membrane; further: in other assays of this panel Not Active means under 50% inhibition at 10 µM
[8] = DRUGMATRIX: Sodium/nucleoside co-transporter radioligand binding (ligand: nitrobenzylthioinosine); type: cell membranes, Cavia porcellus, Dunkin-Hartley, Cerebral cortex, Membrane; conditions: Not Active = under 50% inhibition at 10 µM
[9] = target: T3, C-X-C chemokine receptor type 1 (Homo sapiens, UniProt P25024); further: in other assays of this panel Not Active means under 50% inhibition at 10 µM
T3 sequence (P25024 whole entry): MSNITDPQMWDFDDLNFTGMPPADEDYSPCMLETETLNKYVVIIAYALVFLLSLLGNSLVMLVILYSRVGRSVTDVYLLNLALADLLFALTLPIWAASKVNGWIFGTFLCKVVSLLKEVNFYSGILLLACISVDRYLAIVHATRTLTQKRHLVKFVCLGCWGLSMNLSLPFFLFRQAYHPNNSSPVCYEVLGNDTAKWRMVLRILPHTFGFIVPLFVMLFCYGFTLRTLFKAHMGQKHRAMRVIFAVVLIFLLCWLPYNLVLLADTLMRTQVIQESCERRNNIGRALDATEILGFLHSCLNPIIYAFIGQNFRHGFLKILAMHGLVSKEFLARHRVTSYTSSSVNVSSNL

[10] = DRUGMATRIX: beta-Lactamase enzyme inhibition (substrate: Nitrocefin); parameters: species or system Bacillus cereus; conditions: Not Active = under 50% inhibition at 10 µM
D(3) dopamine receptor = D(3) dopamine receptor (Homo sapiens, UniProt P35462); experiment: DRUGMATRIX: Dopamine D3 radioligand binding (ligand: [3H] Spiperone); type: cell membranes, CHO, Membrane; conditions: cho
D(3) dopamine receptor, sequence (P35462 whole entry): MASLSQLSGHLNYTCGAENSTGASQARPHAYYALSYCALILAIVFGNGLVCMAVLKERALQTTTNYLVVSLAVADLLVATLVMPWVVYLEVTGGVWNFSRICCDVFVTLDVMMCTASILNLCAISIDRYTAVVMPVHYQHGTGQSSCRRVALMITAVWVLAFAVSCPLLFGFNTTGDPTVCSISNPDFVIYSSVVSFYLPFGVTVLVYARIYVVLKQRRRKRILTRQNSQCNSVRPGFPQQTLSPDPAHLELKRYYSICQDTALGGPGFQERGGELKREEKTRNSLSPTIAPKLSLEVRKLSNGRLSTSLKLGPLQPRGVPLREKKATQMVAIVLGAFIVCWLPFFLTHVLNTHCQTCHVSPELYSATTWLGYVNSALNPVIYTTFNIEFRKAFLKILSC

[11] = target: Sodium-dependent noradrenaline transporter (Homo sapiens, UniProt P23975); experiment: DRUGMATRIX: Norepinephrine Transporter radioligand binding (ligand: [125I] RTI-55); type: cell membranes, MDCK, Membrane; conditions: mdck; Not Active = under 50% inhibition at 10 µM
Sodium-dependent noradrenaline transporter, sequence (P23975 whole entry): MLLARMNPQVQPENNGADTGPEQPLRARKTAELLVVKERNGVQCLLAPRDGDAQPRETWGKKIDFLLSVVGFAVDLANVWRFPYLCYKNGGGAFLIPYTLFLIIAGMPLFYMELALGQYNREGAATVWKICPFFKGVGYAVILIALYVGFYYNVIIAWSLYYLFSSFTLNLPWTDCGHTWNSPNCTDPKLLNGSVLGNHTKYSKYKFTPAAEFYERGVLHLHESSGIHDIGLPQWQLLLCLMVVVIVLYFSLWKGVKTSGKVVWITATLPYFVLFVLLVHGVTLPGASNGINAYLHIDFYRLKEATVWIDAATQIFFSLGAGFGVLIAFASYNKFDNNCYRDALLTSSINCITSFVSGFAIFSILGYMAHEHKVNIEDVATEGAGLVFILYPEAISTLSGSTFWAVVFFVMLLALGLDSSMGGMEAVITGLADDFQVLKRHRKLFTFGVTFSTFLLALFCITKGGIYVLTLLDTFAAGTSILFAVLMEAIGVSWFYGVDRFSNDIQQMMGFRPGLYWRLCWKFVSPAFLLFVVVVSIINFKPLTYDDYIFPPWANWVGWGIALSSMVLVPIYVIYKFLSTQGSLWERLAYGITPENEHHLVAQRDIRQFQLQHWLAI

[12] = DRUGMATRIX: Platelet-Derived Growth Factor (PDGF) radioligand binding (ligand: [125I] PDGF); type: cell-based; conditions: nih3t3; Not Active = under 50% inhibition at 10 µM
Histamine H2 receptor = Histamine H2 receptor (Homo sapiens, UniProt P25021); type: cell membranes, CHO-K1, Membrane; conditions: cho-k1; further: in other assays of this panel Not Active means under 50% inhibition at 10 µM
Histamine H2 receptor, sequence (P25021 whole entry): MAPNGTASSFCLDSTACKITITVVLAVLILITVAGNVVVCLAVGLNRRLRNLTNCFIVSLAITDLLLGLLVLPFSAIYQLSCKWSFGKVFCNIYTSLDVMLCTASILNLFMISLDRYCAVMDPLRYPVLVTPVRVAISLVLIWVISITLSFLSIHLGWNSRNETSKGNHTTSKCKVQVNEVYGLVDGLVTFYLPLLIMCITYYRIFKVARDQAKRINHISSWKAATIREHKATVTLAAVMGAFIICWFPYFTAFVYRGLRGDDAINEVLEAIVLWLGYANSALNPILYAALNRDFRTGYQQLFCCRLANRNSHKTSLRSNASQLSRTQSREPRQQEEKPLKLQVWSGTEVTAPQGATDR

Beta-3 adrenergic receptor, sequence (P13945 whole entry): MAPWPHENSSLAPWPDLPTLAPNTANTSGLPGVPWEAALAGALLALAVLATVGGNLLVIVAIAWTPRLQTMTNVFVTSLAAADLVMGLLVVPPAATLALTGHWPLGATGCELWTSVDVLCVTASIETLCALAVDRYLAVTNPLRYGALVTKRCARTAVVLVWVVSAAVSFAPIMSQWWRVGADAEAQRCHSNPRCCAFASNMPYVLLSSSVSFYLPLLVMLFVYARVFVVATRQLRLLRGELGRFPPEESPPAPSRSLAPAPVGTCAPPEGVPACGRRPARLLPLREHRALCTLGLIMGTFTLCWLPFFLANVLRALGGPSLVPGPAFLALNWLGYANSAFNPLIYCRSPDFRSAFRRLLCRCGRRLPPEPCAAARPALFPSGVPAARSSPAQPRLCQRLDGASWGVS

Row | Structure (SMILES) | IC50 [1] | IC50 [2] | IC50 [3] | Ki [3] | IC50 (D(4) dopamine receptor) | IC50 [5] | Ki [5] | IC50 [6] | Ki [6] | IC50 (Thromboxane-A synthase) | IC50 [7] | Ki [7] | IC50 (Glycine receptor) | IC50 [8] | Ki [8] | IC50 [9] | IC50 [10] | Ki [10] | IC50 (D(3) dopamine receptor) | IC50 [11] | other results
1 | CCCCOC(=O)c1ccc(N)cc1 [BUTAMBEN] | Not Active | Not Active | Not Active | Not Active | Not Active | Not Active | Not Active | Not Active | Not Active | Not Active | Not Active | Not Active | Not Active | Not Active | Not Active | Not Active | Not Active | Not Active | Not Active | Not Active | IC50 ([4]; cho-k1): Not Active; IC50 [12]: Not Active; Ki [12]: Not Active; IC50 (Histamine H2 receptor): Not Active
2 | CC[C@@]1(O)C(=O)OCc2c1cc1n(c2=O)Cc2cc3ccccc3nc2-1 [CAMPTOTHECIN] | Not Active | Not Active | Not Active | Not Active | Not Active | Not Active | Not Active | Not Active | Not Active | Not Active | Not Active | Not Active | Not Active | Not Active | Not Active | Not Active | Not Active | Not Active | Not Active | Not Active | IC50 ([4]; read-out: IC50): 970 nM; Ki ([4]; read-out: Ki): 617 nM; IC50 [12]: Not Active; Ki [12]: Not Active; IC50 (Histamine H2 receptor): Not Active
3 | CC(=O)O[C@]1(C(C)=O)CC[C@H]2[C@@H]3C=C(Cl)C4=CC(=O)CC[C@]4(C)[C@H]3CC[C@@]21C [CHLORMADINONE ACETATE] | Not Active | Not Active | Not Active | Not Active | Not Active | Not Active | Not Active | Not Active | Not Active | Not Active | Not Active | Not Active | Not Active | Not Active | Not Active | Not Active | Not Active | Not Active | Not Active | Not Active | IC50 ([4]; cho-k1): Not Active; IC50 [12]: Not Active; Ki [12]: Not Active; IC50 (Histamine H2 receptor): Not Active
4 | O=C1CCc2cc(OCCCCc3nnnn3C3CCCCC3)ccc2N1 [CILOSTAZOL] | Not Active | Not Active | Not Active | Not Active | Not Active | Not Active | Not Active | Not Active | Not Active | Not Active | Not Active | Not Active | Not Active | Not Active | Not Active | Not Active | Not Active | Not Active | Not Active | Not Active | IC50 ([4]; cho-k1): Not Active; IC50 [12]: Not Active; Ki [12]: Not Active; IC50 (Histamine H2 receptor): Not Active
5 | O=C(O)c1cn(C2CC2)c2cc(N3CCNCC3)c(F)cc2c1=O [CIPROFLOXACIN] | Not Active | Not Active | Not Active | Not Active | Not Active | Not Active | Not Active | Not Active | Not Active | Not Active | Not Active | Not Active | Not Active | Not Active | Not Active | Not Active | Not Active | Not Active | Not Active | Not Active | IC50 ([4]; cho-k1): Not Active; IC50 [12]: Not Active; Ki [12]: Not Active; IC50 (Histamine H2 receptor): Not Active
